How the values were obtained:
PIK3CA (human) [1] = biological target: PIK3CA (human) (UniProt P42336); assay: Enzyme Assay
PIK3CD (Human) [2] = biological target: PIK3CD (Human) (UniProt O00329); assay: Enzyme Assay
PIK3CG (human) [3] = biological target: PIK3CG (human) (UniProt P48736); assay: Enzyme Assay
PIK3CA (human) [4] = biological target: PIK3CA (human) (UniProt P42336); assay: Cell-Based Assay; conditions: rat-1
PIK3CD (Human) [5] = biological target: PIK3CD (Human) (UniProt O00329); assay: Cell-Based Assay; conditions: rat-1
PIK3CG (human) [6] = biological target: PIK3CG (human) (UniProt P48736); assay: Cell-Based Assay; conditions: u937

PIK3CA (human), sequence (P42336 whole entry, looked up): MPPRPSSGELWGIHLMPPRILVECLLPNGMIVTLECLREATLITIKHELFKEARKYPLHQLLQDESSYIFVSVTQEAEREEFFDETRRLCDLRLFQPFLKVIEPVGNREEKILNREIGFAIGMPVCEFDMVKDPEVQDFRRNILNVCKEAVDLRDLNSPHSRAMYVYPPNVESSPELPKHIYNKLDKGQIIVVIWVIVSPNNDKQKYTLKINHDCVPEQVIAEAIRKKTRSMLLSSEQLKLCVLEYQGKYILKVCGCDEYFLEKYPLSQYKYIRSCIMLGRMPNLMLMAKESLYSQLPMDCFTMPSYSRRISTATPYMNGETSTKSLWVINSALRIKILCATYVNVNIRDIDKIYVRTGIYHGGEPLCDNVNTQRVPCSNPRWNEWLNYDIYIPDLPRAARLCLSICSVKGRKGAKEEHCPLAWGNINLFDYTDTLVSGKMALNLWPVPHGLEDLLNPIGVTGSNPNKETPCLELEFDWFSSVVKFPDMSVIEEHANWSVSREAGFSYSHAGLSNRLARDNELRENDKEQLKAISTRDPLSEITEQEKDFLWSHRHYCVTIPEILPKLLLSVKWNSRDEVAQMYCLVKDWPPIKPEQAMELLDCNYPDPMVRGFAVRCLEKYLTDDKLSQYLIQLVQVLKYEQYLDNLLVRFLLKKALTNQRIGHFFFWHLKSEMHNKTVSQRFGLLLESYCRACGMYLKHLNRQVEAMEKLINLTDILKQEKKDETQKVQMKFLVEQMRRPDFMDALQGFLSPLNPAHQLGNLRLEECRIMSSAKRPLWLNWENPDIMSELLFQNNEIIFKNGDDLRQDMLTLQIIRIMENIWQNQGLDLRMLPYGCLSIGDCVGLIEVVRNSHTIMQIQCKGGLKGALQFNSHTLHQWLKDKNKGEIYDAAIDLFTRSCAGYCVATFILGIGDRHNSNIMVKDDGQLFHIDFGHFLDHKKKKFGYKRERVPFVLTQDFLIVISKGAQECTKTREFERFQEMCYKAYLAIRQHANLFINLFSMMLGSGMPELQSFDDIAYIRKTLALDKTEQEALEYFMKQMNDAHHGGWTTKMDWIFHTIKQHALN
PIK3CD (Human), sequence (O00329 whole entry, looked up): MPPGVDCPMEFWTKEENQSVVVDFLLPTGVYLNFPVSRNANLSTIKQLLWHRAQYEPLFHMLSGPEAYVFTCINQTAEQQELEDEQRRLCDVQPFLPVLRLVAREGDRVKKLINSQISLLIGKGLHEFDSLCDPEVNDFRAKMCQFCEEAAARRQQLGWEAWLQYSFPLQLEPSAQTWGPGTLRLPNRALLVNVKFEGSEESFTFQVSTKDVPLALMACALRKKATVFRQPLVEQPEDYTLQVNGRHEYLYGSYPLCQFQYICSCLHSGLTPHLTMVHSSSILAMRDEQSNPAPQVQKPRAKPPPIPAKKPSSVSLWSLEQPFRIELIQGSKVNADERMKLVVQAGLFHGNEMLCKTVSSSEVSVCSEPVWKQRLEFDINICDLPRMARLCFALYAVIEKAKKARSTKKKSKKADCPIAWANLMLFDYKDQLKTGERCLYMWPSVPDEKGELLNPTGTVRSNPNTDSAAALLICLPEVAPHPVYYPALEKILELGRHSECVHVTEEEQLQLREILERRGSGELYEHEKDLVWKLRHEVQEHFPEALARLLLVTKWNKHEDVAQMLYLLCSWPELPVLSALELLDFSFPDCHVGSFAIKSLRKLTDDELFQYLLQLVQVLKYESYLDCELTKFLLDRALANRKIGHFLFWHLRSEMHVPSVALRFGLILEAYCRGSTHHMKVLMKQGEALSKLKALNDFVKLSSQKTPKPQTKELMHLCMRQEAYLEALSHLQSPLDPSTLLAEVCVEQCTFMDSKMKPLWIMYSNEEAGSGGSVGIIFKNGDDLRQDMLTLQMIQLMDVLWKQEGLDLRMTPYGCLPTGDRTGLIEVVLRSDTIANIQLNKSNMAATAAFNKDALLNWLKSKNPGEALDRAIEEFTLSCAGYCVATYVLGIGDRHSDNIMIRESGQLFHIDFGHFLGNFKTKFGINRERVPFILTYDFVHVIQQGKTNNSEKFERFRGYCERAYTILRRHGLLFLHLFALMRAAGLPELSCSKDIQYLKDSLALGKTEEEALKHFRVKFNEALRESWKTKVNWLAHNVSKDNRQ
PIK3CG (human), sequence (P48736 whole entry, looked up): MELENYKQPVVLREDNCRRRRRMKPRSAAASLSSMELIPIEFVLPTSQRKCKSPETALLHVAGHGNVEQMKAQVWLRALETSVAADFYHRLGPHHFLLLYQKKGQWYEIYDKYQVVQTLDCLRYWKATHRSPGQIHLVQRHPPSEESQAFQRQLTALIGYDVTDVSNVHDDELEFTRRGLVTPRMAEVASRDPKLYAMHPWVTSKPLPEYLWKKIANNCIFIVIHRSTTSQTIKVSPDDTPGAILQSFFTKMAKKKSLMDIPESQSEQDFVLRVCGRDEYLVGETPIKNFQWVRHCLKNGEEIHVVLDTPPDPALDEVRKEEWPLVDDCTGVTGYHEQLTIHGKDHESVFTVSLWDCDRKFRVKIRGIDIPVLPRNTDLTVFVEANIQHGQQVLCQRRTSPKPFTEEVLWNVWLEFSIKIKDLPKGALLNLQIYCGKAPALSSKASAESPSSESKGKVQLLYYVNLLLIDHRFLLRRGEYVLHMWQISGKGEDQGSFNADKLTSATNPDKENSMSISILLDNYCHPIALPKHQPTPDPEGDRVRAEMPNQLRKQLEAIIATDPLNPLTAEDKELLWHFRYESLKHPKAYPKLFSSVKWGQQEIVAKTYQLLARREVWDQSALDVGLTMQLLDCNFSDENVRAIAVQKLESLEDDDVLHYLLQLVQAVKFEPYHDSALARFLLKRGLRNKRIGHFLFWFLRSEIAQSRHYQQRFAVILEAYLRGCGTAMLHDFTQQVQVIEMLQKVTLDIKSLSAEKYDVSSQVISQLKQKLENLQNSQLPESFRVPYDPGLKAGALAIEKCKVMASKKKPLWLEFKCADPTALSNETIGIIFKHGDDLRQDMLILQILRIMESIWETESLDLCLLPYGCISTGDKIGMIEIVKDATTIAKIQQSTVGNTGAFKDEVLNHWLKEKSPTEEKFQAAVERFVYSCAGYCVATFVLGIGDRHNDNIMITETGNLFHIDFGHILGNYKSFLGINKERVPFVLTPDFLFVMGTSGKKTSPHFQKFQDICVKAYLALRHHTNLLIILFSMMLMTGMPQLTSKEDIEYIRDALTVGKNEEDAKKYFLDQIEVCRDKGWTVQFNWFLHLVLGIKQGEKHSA

| IC50 (PIK3CA (human) [1]) [nM] | IC50 (PIK3CD (Human) [2]) [nM] | IC50 (PIK3CG (human) [3]) [nM] | IC50 (PIK3CA (human) [4]) [nM] | IC50 (PIK3CD (Human) [5]) [nM] | IC50 (PIK3CG (human) [6]) [nM] | SMILES |
| --- | --- | --- | --- | --- | --- | --- |
| 6600 | 390 | 320 | > 10000 | 141 | 113 | N#Cc1cnc(N)nc1N1C[C@@H](O)C[C@H]1c1nc2cccc(C(F)(F)F)c2c(=O)n1-c1ccccc1 |
| 9300 | 82 | 720 | > 10000 | 29 | 146 | N#Cc1c(N)ncnc1N1C[C@@H](O)C[C@H]1c1nc2cccc(C(F)(F)F)c2c(=O)n1-c1cccc(F)c1 |
| 360 | 12 | 18 | 1040 | 4 | 5 | Cc1nc(N)nc(N2C[C@@H](O)C[C@H]2c2nc3cccc(Cl)c3c(=O)n2-c2ccccc2)c1C#N |
| 2800 | 128 | 417 | 3230 | 26 | 473 | CO[C@H]1C[C@@H](c2nc3cccc(Cl)c3c(=O)n2C2CC2)N(c2ncnc(N)c2C#N)C1 |
| 2200 | 10 | 370 | 2720 | 7 | 331 | Cc1c(F)ccc2nc([C@@H]3C[C@H](O)CN3c3ncnc(N)c3C#N)n(-c3ccccc3)c(=O)c12 |
| 1800 | 960 | 220 | > 10000 | 67 | 206 | Cc1nc(N)nc(N2C[C@@H](O)C[C@H]2c2nc3cccc(C(F)(F)F)c3c(=O)n2-c2cccnc2)c1C#N |
| 3800 | 84 | 1300 | 3860 | 86 | 163 | N#Cc1c(N)ncnc1N1C[C@@H](O)C[C@H]1c1nc2cccc(C(F)(F)F)c2c(=O)n1-c1cccnc1 |
| 1000 | 4 | 50 | 2850 | < 3 | 268 | N#Cc1c(N)ncnc1N1C[C@@H](O)C[C@H]1c1nc2cccc(Cl)c2c(=O)n1-c1ccccc1 |
| 3600 | < 3 | 68 | 5230 | 33 | 88 | O=c1c2c(C(F)(F)F)cccc2nc([C@@H]2C[C@H](F)CN2c2ncnc3[nH]cnc23)n1-c1ccccc1 |
| 300 | 4 | 17 | > 10000 | 76 | 148 | CS(=O)(=O)N[C@H]1C[C@@H](c2nc3cccc(Cl)c3c(=O)n2-c2ccccc2)N(c2ncnc3[nH]cnc23)C1 |
| 560 | 7 | 25 | 4020 | 43 | 74 | N#Cc1c(N)ncnc1N1CCC[C@H]1c1nc2cccc(Cl)c2c(=O)n1C1CC1 |
| 160 | < 3 | < 3 | 601 | < 3 | 35 | Cc1nc(N)nc(N2C[C@@H](O)C[C@H]2c2nc3cccc(C)c3c(=O)n2-c2ccccc2)c1C#N |
| 4400 | 64 | 48 | > 10000 | 240 | 76 | Nc1nc(N2C[C@@H](F)C[C@H]2c2nc3cccc(C(F)(F)F)c3c(=O)n2-c2cccnc2)c2nc[nH]c2n1 |
| 2700 | 75 | 950 | 5930 | 98 | 934 | N#Cc1c(N)ncnc1N1CCC[C@H]1c1nc2cccc(C(F)(F)F)c2c(=O)n1-c1cccnc1 |
| > 10000 | 82 | 2100 | > 10000 | 23 | 709 | N#Cc1c(N)ncnc1N1C[C@@H](O)C[C@H]1c1nc2cccc(F)c2c(=O)n1-c1ccccc1 |
| 890 | 17 | 82 | 4440 | 37 | 164 | Cc1nc(N)nc(N2CCC[C@H]2c2nc3cccc(C(F)(F)F)c3c(=O)n2-c2cccc(F)c2)c1C#N |
| 1100 | 13 | 75 | 4600 | 42 | 343 | Cc1nc(N)nc(N2CCC[C@H]2c2nc3cccc(S(C)(=O)=O)c3c(=O)n2-c2ccccc2)c1C#N |
| 2300 | 11 | 23 | 6630 | 46 | 119 | Nc1nc(N2CSC[C@H]2c2nc3cccc(Cl)c3c(=O)n2-c2ccccc2)c2nc[nH]c2n1 |
| 5100 | 7 | 1200 | 4600 | 38 | 821 | CS(=O)(=O)c1cccc2nc([C@@H]3CCCN3c3ncnc(N)c3C#N)n(-c3ccccc3)c(=O)c12 |
| > 10000 | 220 | 58 | > 10000 | 517 | 187 | N#Cc1c(C(F)F)nc(N)nc1N1C[C@@H](O)C[C@H]1c1nc2cccc(C(F)(F)F)c2c(=O)n1-c1ccccc1 |
| 350 | 10 | 19 | > 10000 | < 3 | 59 | Nc1nc(N2CCC[C@H]2c2nc3cccc(Cl)c3c(=O)n2-c2ccccc2)c2ncsc2n1 |
| 790 | 18 | 71 | 1790 | 15 | 27 | Cc1nc(N)nc(N2CCC[C@H]2c2nc3cccc(Cl)c3c(=O)n2N2CCOCC2)c1C#N |
| 1300 | 18 | 9 | 3300 | 29 | 45 | Nc1nc(N2C[C@@H](F)C[C@H]2c2nc3cccc(C(F)(F)F)c3c(=O)n2-c2ccccc2)c2nc[nH]c2n1 |
| 2500 | 27 | 37 | 5310 | 89 | 55 | Nc1nc(N2C[C@@H](O)C[C@H]2c2nc3cccc(C(F)(F)F)c3c(=O)n2-c2ccccc2)c2ncsc2n1 |
| 393 | < 3 | 24 | 1750 | 7 | 74 | N#Cc1c(N)ncnc1N1CCC[C@H]1c1nc2cccc(Cl)c2c(=O)n1-c1ccccc1 |
| 1700 | 24 | 80 | 6570 | 16 | 10 | Cc1nc(N)nc(N2C[C@@H](O)C[C@H]2c2nc3cccc(C(F)(F)F)c3c(=O)n2-c2cccc(F)c2)c1C#N |
| 590 | 10 | 47 | 2060 | 12 | 22 | Cc1nc(N)nc(N2C[C@@H](F)C[C@H]2c2nc3cccc(C(F)(F)F)c3c(=O)n2-c2ccccc2)c1C#N |
| 2000 | < 3 | 44 | 3690 | 14 | 144 | N#Cc1c(N)ncnc1N1OCC[C@H]1c1nc2cccc(Cl)c2c(=O)n1-c1ccccc1 |
| 620 | 5 | 34 | > 10000 | 17 | 117 | O=c1c2c(Cl)cccc2nc([C@@H]2C[C@H](OC(F)F)CN2c2ncnc3[nH]cnc23)n1-c1ccccc1 |
| 1700 | 48 | 87 | > 10000 | 110 | 40 | Nc1nc(N2CCC[C@H]2c2nc3cccc(C(F)(F)F)c3c(=O)n2-c2ccccc2)c2ncsc2n1 |

Reference: the Kinase Knowledgebase extract (Sharma et al. 2016)
